# According to US20070116781A1, “Hydrogen Cyanamide Pesticide Formulations” (priority 2005, published 2007):
# Tests used:
# crabgrass [1] = assay: Herbicidal activity, cyanamide and propionic acid, pre-emergence, covered pots; assay type: in vivo, Digitaria sanguinalis
# Experimental: (§1) The weeds used in these tests were grown from a standard weed seed pack of common annual and perennial weeds representing an extreme weed situation. The weeds included yellow nutsedge (Cyperus esculentus), crabgrass (Digitaria sanguinalis), pigweed (Amaranthus spp.), momingglory (Ipomoea spp.), sicklepod (Senna obtusifolia) and other annual weeds. Observations of the effects on the weed population as a whole were made, and individual observations were made for yellow nutsedge, crabgrass, and sicklepod. Stock solutions of hydrogen cyanamide at 1.25% by weight and propionic acid at 5.0% by weight, both in water, were prepared, the hydrogen cyanamide from a phosphate-buffered 50% aqueous solution. […] Data analyses were performed in the same manner as Example 1. The results expressed in weeds per pot are listed in Table V for all weeds, Table VI for yellow nutsedge, Table VII for crabgrass, and Table VIII for sicklepod, all at various application rates for both hydrogen cyanamide and propionic acid.
# yellow nutsedge = assay: Herbicidal activity, cyanamide and citric acid, pre-emergence, covered pots; assay type: in vivo, Cyperus esculentus
# Experimental: (§2) The weeds used in these tests were grown from a standard weed seed pack of common annual and perennial weeds representing an extreme weed situation. The weeds included crabgrass (Digitaria sanguinalis), yellow nutsedge (Cyperus esculentus), […] (Ipomoea spp.), pigweed (Amaranthus spp.), and other annual weeds. Observations of the effects on the weed population as a whole were made, and individual observations were made for crabgrass, yellow nutsedge, sicklepod, morningglory, and pigweed. Stock solutions of hydrogen cyanamide at 1.25% by weight and citric acid at 5.0% by weight, both in water, were prepared, the hydrogen cyanamide from a phosphate-buffered 50% aqueous solution. […] Data analyses were performed in the same manner as Example 1. The results expressed in weeds per pot are listed in Table XIV for all weeds, Table XV for crabgrass, Table XVI for yellow nutsedge, Table XVII for sicklepod, Table XVIII for morningglory, and Table XIX for pigweed, all at various application rates for hydrogen cyanamide, with and without citric acid.
# crabgrass [2] = assay: as above; assay type: in vivo, Digitaria sanguinalis
# Experimental: as §2
# all weeds = assay: Herbicidal activity, cyanamide and propionic acid, pre-emergence, covered pots; assay type: in vivo
# Experimental: as §1
# combined weed species = assay: Herbicidal activity, cyanamide and citric acid, pre-emergence, covered pots; assay type: in vivo
# Experimental: as §2
# morningglory = assay: as above; assay type: in vivo, Ipomoea spp.
# Experimental: as §2
# sicklepod = assay: Herbicidal activity, cyanamide and propionic acid, pre-emergence, covered pots; assay type: in vivo, Senna obtusifolia
# Experimental: as §1
# [3] = 8 d after treatment, cyanamide 75 mg/kg soil
# [4] = 8 d after treatment, cyanamide 150 mg/kg soil
# [5] = 14 d after treatment, cyanamide 75 mg/kg soil
# [6] = 14 d after treatment, cyanamide 150 mg/kg soil
# [7] = 20 d after treatment, cyanamide 75 mg/kg soil
# [8] = 20 d after treatment, cyanamide 150 mg/kg soil
# [9] = 27 d after treatment, cyanamide 75 mg/kg soil
# [10] = 27 d after treatment, cyanamide 150 mg/kg soil
# [11] = 13 d after treatment, cyanamide 50 mg/kg soil
# [12] = 13 d after treatment, cyanamide 100 mg/kg soil
# [13] = 13 d after treatment, cyanamide 150 mg/kg soil
# [14] = 13 d after treatment, cyanamide 200 mg/kg soil
# [15] = 13 d after treatment, cyanamide 250 mg/kg soil
# [16] = 19 d after treatment, cyanamide 50 mg/kg soil
# [17] = 19 d after treatment, cyanamide 100 mg/kg soil
# [18] = 19 d after treatment, cyanamide 150 mg/kg soil
# [19] = 19 d after treatment, cyanamide 200 mg/kg soil
# [20] = 19 d after treatment, cyanamide 250 mg/kg soil
# [21] = 26 d after treatment, cyanamide 50 mg/kg soil
# [22] = 26 d after treatment, cyanamide 100 mg/kg soil
# [23] = 26 d after treatment, cyanamide 150 mg/kg soil
# [24] = 26 d after treatment, cyanamide 200 mg/kg soil
# [25] = 26 d after treatment, cyanamide 250 mg/kg soil
# [26] = 9 d after treatment, cyanamide 50 mg/kg soil
# [27] = 9 d after treatment, cyanamide 100 mg/kg soil
# [28] = 9 d after treatment, cyanamide 150 mg/kg soil
# [29] = 9 d after treatment, cyanamide 200 mg/kg soil
# [30] = 9 d after treatment, cyanamide 250 mg/kg soil
smiles,measurement,setting,value
"N#CN [Cyanamide, hydrogen cyanamide]",Weeds Per Pot: Crabgrass,crabgrass [1]; [3],0
same,Weeds Per Pot: Crabgrass,crabgrass [1]; [4],0
same,Weeds Per Pot: Crabgrass,crabgrass [1]; [5],3.3
same,Weeds Per Pot: Crabgrass,crabgrass [1]; [6],0
same,Weeds Per Pot: Crabgrass,crabgrass [1]; [7],8.6
same,Weeds Per Pot: Crabgrass,crabgrass [1]; [8],3.7
same,Weeds Per Pot: Crabgrass,crabgrass [1]; [9],7.7
same,Weeds Per Pot: Crabgrass,crabgrass [1]; [10],4
same,Weeds Per Pot: Yellow Nutsedge,yellow nutsedge; [11],0.9
same,Weeds Per Pot: Yellow Nutsedge,yellow nutsedge; [12],0.4
same,Weeds Per Pot: Yellow Nutsedge,yellow nutsedge; [13],0.1
same,Weeds Per Pot: Yellow Nutsedge,yellow nutsedge; [14],0
same,Weeds Per Pot: Yellow Nutsedge,yellow nutsedge; [15],0
same,Weeds Per Pot: Yellow Nutsedge,yellow nutsedge; [16],2.4
same,Weeds Per Pot: Yellow Nutsedge,yellow nutsedge; [17],0.6
same,Weeds Per Pot: Yellow Nutsedge,yellow nutsedge; [18],0.6
same,Weeds Per Pot: Yellow Nutsedge,yellow nutsedge; [19],0
same,Weeds Per Pot: Yellow Nutsedge,yellow nutsedge; [20],0
same,Weeds Per Pot: Yellow Nutsedge,yellow nutsedge; [21],2.9
same,Weeds Per Pot: Yellow Nutsedge,yellow nutsedge; [22],1.7
same,Weeds Per Pot: Yellow Nutsedge,yellow nutsedge; [23],1.0
same,Weeds Per Pot: Yellow Nutsedge,yellow nutsedge; [24],0
same,Weeds Per Pot: Yellow Nutsedge,yellow nutsedge; [25],0
same,Weeds Per Pot: Crabgrass,crabgrass [2]; [26],4.3
same,Weeds Per Pot: Crabgrass,crabgrass [2]; [27],1.6
same,Weeds Per Pot: Crabgrass,crabgrass [2]; [28],0
same,Weeds Per Pot: Crabgrass,crabgrass [2]; [29],0
same,Weeds Per Pot: Crabgrass,crabgrass [2]; [30],0
same,Weeds Per Pot: Crabgrass,crabgrass [2]; [11],7.4
same,Weeds Per Pot: Crabgrass,crabgrass [2]; [12],2.9
same,Weeds Per Pot: Crabgrass,crabgrass [2]; [13],0.4
same,Weeds Per Pot: Crabgrass,crabgrass [2]; [14],0
same,Weeds Per Pot: Crabgrass,crabgrass [2]; [15],0
same,Weeds Per Pot: Crabgrass,crabgrass [2]; [16],7.3
same,Weeds Per Pot: Crabgrass,crabgrass [2]; [17],3.4
same,Weeds Per Pot: Crabgrass,crabgrass [2]; [18],0.6
same,Weeds Per Pot: Crabgrass,crabgrass [2]; [19],0
same,Weeds Per Pot: Crabgrass,crabgrass [2]; [20],0
same,Weeds Per Pot: Crabgrass,crabgrass [2]; [21],9.6
same,Weeds Per Pot: Crabgrass,crabgrass [2]; [22],5.6
same,Weeds Per Pot: Crabgrass,crabgrass [2]; [23],1.4
same,Weeds Per Pot: Crabgrass,crabgrass [2]; [24],0
same,Weeds Per Pot: Crabgrass,crabgrass [2]; [25],0
same,Weeds Per Pot: All Weeds,all weeds; [3],2.6
same,Weeds Per Pot: All Weeds,all weeds; [4],0.6
same,Weeds Per Pot: All Weeds,all weeds; [5],8.7
same,Weeds Per Pot: All Weeds,all weeds; [6],4.6
same,Weeds Per Pot: All Weeds,all weeds; [7],15.1
same,Weeds Per Pot: All Weeds,all weeds; [8],9.9
same,Weeds Per Pot: All Weeds,all weeds; [9],17
same,Weeds Per Pot: All Weeds,all weeds; [10],13.3
same,Weeds Per Pot (combined weed species),combined weed species; [26],15.0
same,Weeds Per Pot (combined weed species),combined weed species; [27],1.6
same,Weeds Per Pot (combined weed species),combined weed species; [28],0.2
same,Weeds Per Pot (combined weed species),combined weed species; [29],0
same,Weeds Per Pot (combined weed species),combined weed species; [30],0
same,Weeds Per Pot (combined weed species),combined weed species; [11],14.4
same,Weeds Per Pot (combined weed species),combined weed species; [12],14.0
same,Weeds Per Pot (combined weed species),combined weed species; [13],0.9
same,Weeds Per Pot (combined weed species),combined weed species; [14],0
same,Weeds Per Pot (combined weed species),combined weed species; [15],0
same,Weeds Per Pot (combined weed species),combined weed species; [16],11.2
same,Weeds Per Pot (combined weed species),combined weed species; [17],4.8
same,Weeds Per Pot (combined weed species),combined weed species; [18],1.6
same,Weeds Per Pot (combined weed species),combined weed species; [19],0.3
same,Weeds Per Pot (combined weed species),combined weed species; [20],0
same,Weeds Per Pot (combined weed species),combined weed species; [21],21.5
same,Weeds Per Pot (combined weed species),combined weed species; [22],10.0
same,Weeds Per Pot (combined weed species),combined weed species; [23],3.0
same,Weeds Per Pot (combined weed species),combined weed species; [24],0.8
same,Weeds Per Pot (combined weed species),combined weed species; [25],0.8
same,Weeds Per Pot: Morningglory,morningglory; [11],0
same,Weeds Per Pot: Morningglory,morningglory; [12],0
same,Weeds Per Pot: Morningglory,morningglory; [13],0
same,Weeds Per Pot: Morningglory,morningglory; [14],0
same,Weeds Per Pot: Morningglory,morningglory; [15],0
same,Weeds Per Pot: Morningglory,morningglory; [16],0
same,Weeds Per Pot: Morningglory,morningglory; [17],0
same,Weeds Per Pot: Morningglory,morningglory; [18],0
same,Weeds Per Pot: Morningglory,morningglory; [19],0
same,Weeds Per Pot: Morningglory,morningglory; [20],0
same,Weeds Per Pot: Morningglory,morningglory; [21],1.6
same,Weeds Per Pot: Morningglory,morningglory; [22],0.7
same,Weeds Per Pot: Morningglory,morningglory; [23],0.4
same,Weeds Per Pot: Morningglory,morningglory; [24],0.3
same,Weeds Per Pot: Morningglory,morningglory; [25],0.1
same,Weeds Per Pot: Sicklepod,sicklepod; [3],1
same,Weeds Per Pot: Sicklepod,sicklepod; [4],0.4
same,Weeds Per Pot: Sicklepod,sicklepod; [5],1.9
same,Weeds Per Pot: Sicklepod,sicklepod; [6],2.1
same,Weeds Per Pot: Sicklepod,sicklepod; [7],2
same,Weeds Per Pot: Sicklepod,sicklepod; [8],2.7
same,Weeds Per Pot: Sicklepod,sicklepod; [9],2.4
same,Weeds Per Pot: Sicklepod,sicklepod; [10],3.1
